In article PMC9819389, “Antiandrogenic and Estrogenic Activity Evaluation of Oxygenated and Nitrated Polycyclic Aromatic Hydrocarbons Using Chemically Activated Luciferase Expression Assays” (International Journal of Environmental Research and Public …, 2022):

Legend:
human AR [1] = target: T1, human AR (Homo sapiens, UniProt P10275); assay: AR-CALUX assay, antiandrogenic (AR antagonistic) activity, U2OS-luc cells; assay type: cell-based; set-up: host or cells: human U2OS-luc (osteoblastic osteosarcoma) cells; details: for inhibition of AR-mediated luciferase activity: coexposure to DHT at 10 nM (100 × EC50)
T1 sequence (P10275 1-920): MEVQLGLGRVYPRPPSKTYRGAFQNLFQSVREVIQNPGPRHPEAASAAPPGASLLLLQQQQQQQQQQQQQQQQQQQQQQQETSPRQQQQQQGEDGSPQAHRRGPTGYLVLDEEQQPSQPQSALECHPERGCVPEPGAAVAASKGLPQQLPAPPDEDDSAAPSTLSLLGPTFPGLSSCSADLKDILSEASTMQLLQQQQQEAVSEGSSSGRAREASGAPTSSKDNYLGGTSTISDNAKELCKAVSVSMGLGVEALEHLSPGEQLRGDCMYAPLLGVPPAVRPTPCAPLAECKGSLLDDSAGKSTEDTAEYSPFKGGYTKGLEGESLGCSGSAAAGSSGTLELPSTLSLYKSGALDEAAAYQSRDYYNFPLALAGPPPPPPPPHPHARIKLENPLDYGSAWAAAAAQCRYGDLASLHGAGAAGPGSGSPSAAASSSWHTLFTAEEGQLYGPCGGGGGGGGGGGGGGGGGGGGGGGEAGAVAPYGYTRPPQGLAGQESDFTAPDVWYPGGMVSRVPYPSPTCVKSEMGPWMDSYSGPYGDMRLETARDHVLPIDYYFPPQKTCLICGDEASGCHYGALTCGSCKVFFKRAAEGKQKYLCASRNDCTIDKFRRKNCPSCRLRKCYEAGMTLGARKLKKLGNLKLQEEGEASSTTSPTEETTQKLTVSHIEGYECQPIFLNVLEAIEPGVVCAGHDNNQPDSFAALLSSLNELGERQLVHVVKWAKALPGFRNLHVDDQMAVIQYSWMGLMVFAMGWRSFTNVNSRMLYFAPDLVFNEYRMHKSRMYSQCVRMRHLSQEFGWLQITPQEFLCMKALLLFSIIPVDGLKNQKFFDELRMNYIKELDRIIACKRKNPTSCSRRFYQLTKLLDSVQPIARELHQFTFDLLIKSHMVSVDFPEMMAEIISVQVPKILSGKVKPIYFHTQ
Procedure: The AR- and ER-CALUX assays for the polycyclic aromatic compounds were evaluated according to previously described methods, which used human U2OS-luc cells developed by BioDetection Systems b.v. (Amsterdam, The Netherlands). The cells are transfected stably with human AR and ER, respectively, and a luciferase reporter gene under their respective steroid receptor response elements. […] They were incubated at 37 °C in a humidified atmosphere containing 5% carbon dioxide. […] The medium was then removed, and the cells were lysed. A solution of luciferin was then added, and the luminescence intensity was measured with an ARVO™ X3 luminometer from PerkinElmer (Waltham, MA, USA). A sigmoid dose–response curve for a chemical was fitted to the Hill equation given by Equation (1) using SigmaPlot 11.0 from Systat Software Inc. (San Jose, CA, USA). y = min + (max − min)/(1 + (a1/x)^a^2)(1) where, y and x are the measured luciferase induction level and compound concentration, respectively. […] The REP values in mol base were obtained by dividing the ICs or ECs of the standard by the ICs or ECs of target compound, respectively.
(§1) All measurements were conducted in triplicate wells. They were repeated twice and trice in the AR- and ER-CALUX assays, respectively, for each concentration in dose–response curve. […] Cell viability was confirmed using 3-(4,5-dimethylthiazol-2-yl)-2,5-diphenyltetrazolium bromide (MTT) assay. If the cell viability was <80% in the positive control, the corresponding exposure dose was considered cytotoxic and excluded from the calculation.

thyroid receptor (TR) α = tested on: thyroid receptor (TR) α; set-up: method as in PMID 31071665; details: TRα activation; cited from earlier work
human AR [2] = target: T1, human AR; set-up: method as in Otsuki et al. [38]; key: +, positive; details: previous study; ref Otsuki et al. [38]; cited from earlier work
U2OS-luc cells = assay: MTT cell viability (cytotoxicity) assay; details: cell viability <80% considered cytotoxic
Procedure: as §1

O=C1c2ccccc2-c2ccc([N+](=O)[O-])c3cccc1c23 [3-NBAO, 3-nitro-7H-benz[de]anthracen-7-one]
inhibition of AR-mediated luciferase activity (human AR [1]; compound at 30 nM): 29%
inhibition of AR-mediated luciferase activity (human AR [1]; compound at 300 nM): 60%
mode of AR inhibition (human AR [1]; from coexposure to 10 nM DHT): noncompetitive
IC25 (human AR [1]; present study, 24 h exposure with 100 pM DHT (EC50 level)): 5.1 nM
REPmol (IC25) (human AR [1]; present study, molar relative potency to flutamide, IC25-based): 23
IC50 (human AR [1]; read-out: IC50): 18 nM
REP50 to triiodothyronine (T3) (thyroid receptor (TR) α): 0.11
antiandrogenic activity, Yeast (human AR [2]): +
concentration at which cytotoxicity was confirmed (U2OS-luc cells): 1000 nM
